Molecules are shown by their SMILES.

The test system of the first assay is human σ1 receptor and human μ-opioid receptor. The assay can be described thus: μ and σ1 dual binding: human σ1 receptor radioligand assay ([3H](+)-pentazocine, transfected HEK-293 membranes) and human μ-opioid receptor radioligand assay ([3H]-DAMGO, transfected CHO-K1 membranes). Further details: key to μ and σ1 dual binding: +: Both Ki-μ and Ki-σ1>=500 nM; ++: One Ki<500 nM while the other Ki is >=500 nM; +++: Both Ki-μ and Ki-σ1<500 nM; ++++: Both Ki-μ and Ki-σ1<100 nM.
Details: not given
In the case of `Cn1nccc1C(c1ccccc1)N1CCN(CCc2ccc(F)cc2)CC1` (stereo not drawn) [Example 23, 1-(4-fluorophenethyl)-4-((1-methyl-1H-pyrazol-5-yl)(phenyl)methyl)piperazine], the “μ and σ1 dual binding” value is given as “++”.

As for `Cn1nccc1C(c1cncc(F)c1)N1CCN(CCc2ccccc2)CC1` (stereo not drawn) [Example 13, 1-((5-fluoropyridin-3-yl)(1-methyl-1H-pyrazol-5-yl)methyl)-4-phenethylpiperazine], the “μ and σ1 dual binding” value is reported as “++”.

As for `Cn1nccc1C(c1cnccc1C(F)(F)F)N1CCN(CCc2ccccc2)CC1` (stereo not drawn) [Example 19, 1-((1-methyl-1H-pyrazol-5-yl)(4-(trifluoromethyl)pyridin-3-yl)methyl)-4-phenethylpiperazine], the “μ and σ1 dual binding” value is “++”.

With `Cn1nccc1C(c1cccnc1)N1CCN(CCc2ccccc2)CC1` (stereo not drawn) [Example 5, 1-((1-methyl-1H-pyrazol-5-yl)(pyridin-3-yl)methyl)-4-phenethylpiperazine], the “μ and σ1 dual binding” value is “++”.

The molecule `COc1cccc(C(c2ccnn2C)N2CCN(CCc3ccccc3)CC2)c1` (stereo not drawn) [Example 7, 1-((3-methoxyphenyl)(1-methyl-1H-pyrazol-5-yl)methyl)-4-phenethylpiperazine] returned a Ki of less than 100 nM.

`Cn1nccc1C(c1ccccc1)N1CCN(CCc2ncccc2Cl)CC1` (stereo not drawn) [Example 41, 1-(2-(3-chloropyridin-2-yl)ethyl)-4-((1-methyl-1H-pyrazol-5-yl)(phenyl)methyl)piperazine]: the “μ and σ1 dual binding” value is given as “++”.

As for `Cn1nccc1C(c1ccccc1)N1CCN(CCc2ccccc2O)CC1` (stereo not drawn) [Example 28, 2-(2-(4-((1-Methyl-1H-pyrazol-5-yl)(phenyl)methyl)piperazin-1-yl)ethyl)phenol], the “μ and σ1 dual binding” value is “++”.

`COc1ccc(C(c2ccnn2C)N2CCN(CCc3ccccc3)CC2)cc1` (stereo not drawn) [Example 9, 1-((4-methoxyphenyl)(1-methyl-1H-pyrazol-5-yl)methyl)-4-phenethylpiperazine] registered a Ki of less than 500 nM.

`Cn1nccc1C(c1ccc(F)cn1)N1CCN(CCc2ncccc2Cl)CC1` (stereo not drawn) [Example 43, 1-(2-(3-chloropyridin-2-yl)ethyl)-4-((5-fluoropyridin-2-yl)(1-methyl-1H-pyrazol-5-yl)methyl)piperazine]: the “μ and σ1 dual binding” value was “++”.

On to `Cn1nccc1C(c1ccncc1)N1CCN(CCc2ccccc2)CC1` (stereo not drawn) [Example 20, 1-((1-methyl-1H-pyrazol-5-yl)(pyridin-4-yl)methyl)-4-phenethylpiperazine], for which the “μ and σ1 dual binding” value is recorded as “++”.

With `Cn1nccc1C(c1ccc(C(F)(F)F)cn1)N1CCN(CCc2ccccc2)CC1` (stereo not drawn) [Example 14, 1-((1-methyl-1H-pyrazol-5-yl)(5-(trifluoromethyl)pyridin-2-yl)methyl)-4-phenethylpiperazine], the “μ and σ1 dual binding” value was “++”.

In the case of `Cn1nccc1C(c1ccccn1)N1CCN(CCc2ccccc2)CC1` (stereo not drawn) [Example 4, 1-((1-methyl-1H-pyrazol-5-yl)(pyridin-2-yl)methyl)-4-phenethylpiperazine], the “μ and σ1 dual binding” value is given as “++”.

`Cn1nccc1C(c1ccc(C(F)(F)F)nc1)N1CCN(CCc2ccccc2)CC1` (stereo not drawn) [Example 11, 1-((1-methyl-1H-pyrazol-5-yl)(6-(trifluoromethyl)pyridin-3-yl)methyl)-4-phenethylpiperazine]: the “μ and σ1 dual binding” value is “++”.

As to `Cn1nccc1C(c1ccccc1)N1CCN(CCc2ccccc2)CC1` (stereo not drawn) [Example 3, 1-((1-methyl-1H-pyrazol-5-yl)(phenyl)methyl)-4-phenethylpiperazine], the Ki was less than 100 nM.

Consider `Cn1nccc1C(c1ccc(Cl)cn1)N1CCN(CCc2ccccc2)CC1` (stereo not drawn) [Example 18, 1-((5-chloropyridin-2-yl)(1-methyl-1H-pyrazol-5-yl)methyl)-4-phenethylpiperazine], for which the “μ and σ1 dual binding” value is reported as “++”.

With `Cn1nccc1C(c1ccccc1)N1CCN(CCc2ccccn2)CC1` (stereo not drawn) [Example 1, 1-((1-Methyl-1H-pyrazol-5-yl)(phenyl)methyl)-4-(2-(pyridin-2-yl)ethyl)piperazine], the “μ and σ1 dual binding” value was “++”.

In the case of `Cn1nccc1C(c1ccccc1)N1CCN(CCc2ccccc2F)CC1` (stereo not drawn) [Example 22, 1-(2-fluorophenethyl)-4-((1-methyl-1H-pyrazol-5-yl)(phenyl)methyl)piperazine], the Ki is less than 100 nM.

Molecule `Cn1nccc1C(c1cccc(O)c1)N1CCN(CCc2ccccc2)CC1` (stereo not drawn) [Example 29, 3-((1-methyl-1H-pyrazol-5-yl)(4-phenethylpiperazin-1-yl)methyl)phenol] came in with a Ki of less than 500 nM.

In turn, `COc1ccccc1C(c1ccnn1C)N1CCN(CCc2ccccc2)CC1` (stereo not drawn) [Example 8, 1-((2-methoxyphenyl)(1-methyl-1H-pyrazol-5-yl)methyl)-4-phenethylpiperazine] yielded a Ki of less than 500 nM.

Molecule `Cn1nccc1C(c1ccccc1)N1CCN(CCc2cccc(O)c2)CC1` (stereo not drawn) [Example 30, 3-(2-(4-((1-methyl-1H-pyrazol-5-yl)(phenyl)methyl)piperazin-1-yl)ethyl)phenol] came in with an inhibition constant (Ki) of less than 100 nM.

Regarding `Cn1nccc1C(c1ccc(F)cn1)N1CCN(CCc2ccccc2)CC1` (stereo not drawn) [Example 12, 1-((5-fluoropyridin-2-yl)(1-methyl-1H-pyrazol-5-yl)methyl)-4-phenethylpiperazine], the Ki is less than 500 nM.

`Cn1nccc1C(c1cccnc1C(F)(F)F)N1CCN(CCc2ccccc2)CC1` (stereo not drawn) [Example 17, 1-((1-methyl-1H-pyrazol-5-yl)(2-(trifluoromethyl)pyridin-3-yl)methyl)-4-phenethylpiperazine] came in with a Ki of less than 500 nM.

As for `Cn1nccc1C(c1ccccc1)N1CCN(CCc2ccncc2)CC1` (stereo not drawn) [Example 37, 1-((1-methyl-1H-pyrazol-5-yl)(phenyl)methyl)-4-(2-(pyridin-4-yl)ethyl)piperazine], the “μ and σ1 dual binding” value is “++”.

For `Cn1nccc1C(c1ccccc1)N1CCN(CCc2cccc(F)c2)CC1` (stereo not drawn) [Example 35, 1-(3-Fluorophenethyl)-4-((1-methyl-1H-pyrazol-5-yl)(phenyl)methyl)piperazine], the Ki is less than 500 nM.

Consider `Cn1nccc1C(c1ccc(F)cn1)N1CCN(CCc2ccccc2F)CC1` (stereo not drawn) [Example 26, 1-(2-fluorophenethyl)-4-((5-fluoropyridin-2-yl)(1-methyl-1H-pyrazol-5-yl)methyl)piperazine], for which the “μ and σ1 dual binding” value is recorded as “++”.

For the molecule `Cn1nccc1C(c1ccccc1)N1CCN(CC(O)c2ccccc2)CC1` (stereo not drawn) [Example 39, 2-(4-((1-Methyl-1H-pyrazol-5-yl)(phenyl)methyl)piperazin-1-yl)-1-phenylethanol], the “μ and σ1 dual binding” value is listed as “++”.

`Cn1nccc1C(c1cccc(C(F)(F)F)n1)N1CCN(CCc2ccccc2)CC1` (stereo not drawn) [Example 10, 1-((1-methyl-1H-pyrazol-5-yl)(6-(trifluoromethyl)pyridin-2-yl)methyl)-4-phenethylpiperazine]: the “μ and σ1 dual binding” value is “++”.

For `COc1cccc(CCN2CCN(C(c3ccc(F)cn3)c3ccnn3C)CC2)c1` (stereo not drawn) [Example 27, 1-((5-fluoropyridin-2-yl)(1-methyl-1H-pyrazol-5-yl)methyl)-4-(3-methoxyphenethyl)piperazine], the “μ and σ1 dual binding” value is given as “++”.

`Cn1nccc1C(c1ccc(F)cn1)N1CCN(CCc2cccc(F)c2)CC1` (stereo not drawn) [Example 38, 1-(3-fluorophenethyl)-4-((5-fluoropyridin-2-yl)(1-methyl-1H-pyrazol-5-yl)methyl)piperazine] returned a Ki of less than 500 nM.

Still in this assay, the particulars now being: one combined class for Ki-μ and Ki-σ1.
`Cn1nccc1C(c1ccccc1)N1CCN(CCc2csc(N)n2)CC1` (stereo not drawn) [Example 32, 4-(2-(4-((1-Methyl-1H-pyrazol-5-yl)(phenyl)methyl)piperazin-1-yl)ethyl)thiazol-2-amine]: the Ki is no less than 500 nM.

In the case of `Cn1nccc1C(c1ccccc1)N1CCN(CCc2csc(NC(=O)OC(C)(C)C)n2)CC1` (stereo not drawn) [Example 25, tert-butyl 4-(2-(4-((1-methyl-1H-pyrazol-5-yl)(phenyl)methyl)piperazin-1-yl)ethyl)thiazol-2-ylcarbamate], the Ki is no less than 500 nM.

For `Cn1nccc1C(c1ccccc1)N1CCN(CCc2cccnc2)CC1` (stereo not drawn) [Example 36, 1-((1-methyl-1H-pyrazol-5-yl)(phenyl)methyl)-4-(2-(pyridin-3-yl)ethyl)piperazine], the Ki is no less than 500 nM.

Consider `Cn1nccc1C(c1ccccc1)N1CCN(CCc2cccc(NS(C)(=O)=O)n2)CC1` (stereo not drawn) [Example 44, N-(6-(2-(4-((1-methyl-1H-pyrazol-5-yl)(phenyl)methyl)piperazin-1-yl)ethyl)pyridin-2-yl)methanesulfonamide], for which the Ki was no less than 500 nM.

`Cn1nccc1C(c1ccccc1)N1CCN(CCc2ccc(C(F)(F)F)nc2)CC1` (stereo not drawn) [Example 24, 1-((1-methyl-1H-pyrazol-5-yl)(phenyl)methyl)-4-(2-(6-(trifluoromethyl)pyridin-3-yl)ethyl)piperazine]: the Ki is no less than 500 nM.

`COc1ccccc1CCN1CCN(C(c2ccccc2)c2ccnn2C)CC1` (stereo not drawn) [Example 6, 1-(2-methoxyphenethyl)-4-((1-methyl-1H-pyrazol-5-yl)(phenyl)methyl)piperazine]: the Ki is no less than 500 nM.

Take `Cn1nccc1C(c1ccccc1)N1CCN(CCc2cccc(C(F)(F)F)n2)CC1` (stereo not drawn) [Example 42, 1-((1-methyl-1H-pyrazol-5-yl)(phenyl)methyl)-4-(2-(6-(trifluoromethyl)pyridin-2-yl)ethyl)piperazine]: the Ki was no less than 500 nM.

`Cn1nccc1C(c1ccccc1)N1CCN(CCc2ncccc2F)CC1` (stereo not drawn) [Example 33, 1-(2-(3-Fluoropyridin-2-yl)ethyl)-4-((1-methyl-1H-pyrazol-5-yl)(phenyl)methyl)piperazine]: the Ki is no less than 500 nM.

For `Cn1nccc1C(c1ccccc1)N1CCN(CCc2ccc(F)cn2)CC1` (stereo not drawn) [Example 34, 1-(2-(5-fluoropyridin-2-yl)ethyl)-4-((1-methyl-1H-pyrazol-5-yl)(phenyl)methyl)piperazine], the Ki is no less than 500 nM.

For `Cn1nccc1C(c1ccccc1)N1CCN(CCc2cccc(N)n2)CC1` (stereo not drawn) [Example 40, 6-(2-(4-((1-Methyl-1H-pyrazol-5-yl)(phenyl)methyl)piperazin-1-yl)ethyl)pyridin-2-amine], the Ki was no less than 500 nM.

The values above are taken from US10189828B2, “1-methylpyrazole-piperazine compounds having multimodal activity against pain” (LABORATORIOS DEL DR. ESTEVE S.A., priority 2014, dated 2019).
